Experimental data reported in patent US20060173068A1, “Amorphous and crystalline forms of dorzolamide hydrochloride and processes of making same” (priority 2005, published 2006).

How the values were obtained:
[1] = Effect of varying relative humidity on amorphous Dorzolamide hydrochloride (hygroscopicity chamber; LOD by TGA, crystal form by XRD); format: physicochemical
Protocol: (§1) The scanning parameters are as follows: the range is preferably about 2° to about 40° 2θ over a substantially continuous scan at a rate of about 3° per minute. The accuracy of peak positions is defined as ±0.2° due to experimental differences, such as instrumentations, sample preparations, and the like.
Thermal Gravimetric Analysis (TGA) is preferably performed with a Mettler Toledo TGA/SDTA 851^e. Sample weights preferably range from about 7 to about 15 mg, the heating rate is preferably about 10° C. per minute in a N2 stream having a flow rate of about 50 ml per minute over a scan range of about 30° to about 250° C.
Each of a series of 200 mg samples of amorphous Dorzolamide hydrochloride are exposed to a relative humidity (RH) of one of 0, 20, 40, 60, 80, and 100 percent for a period of 5 days at room temperature in a hygroscopicity chamber. The loss on drying (LOD) of the samples is measured by TGA before and after exposure, and the values obtained are plotted against the RH values. In addition, the crystal form of each sample is measured by XRD before and after the exposure.

[2] = Exposure of amorphous Dorzolamide HCl to about 160° C. for about 15 minutes, crystal form by XRD; format: physicochemical; conditions: oven, open glass weighing bottle
Protocol: as §1

[3] = RH 0 %, 5 days, room temperature
[4] = RH 20 %, 5 days, room temperature
[5] = RH 40 %, 5 days, room temperature

SMILES: CCN[C@H]1C[C@H](C)S(=O)(=O)c2sc(S(N)(=O)=O)cc21.Cl [Amorphous Dorzolamide HCl, 5,6-dihydro-4-(S)-ethylamino-6-(S)-methyl-4H-thieno-[2,3-b]thiopyran-2-sulfonamide-7,7-dioxyde hydrochloride]
- Crystal form by XRD ([1]; Original sample, before exposure): amorphous
- LOD (%) ([1]; Original sample, before exposure, LOD by TGA): 2.7%
- Crystal form by XRD [1, 3]: amorphous
- LOD (%) [1, 3]: 2.0%
- Crystal form by XRD [1, 4]: amorphous
- LOD (%) [1, 4]: 2.9%
- Crystal form by XRD [1, 5]: amorphous
- LOD (%) [1, 5]: 3.8%
- LOD (%) ([1]; RH 60 %, 5 days, room temperature): 0.2%
- Crystal form by XRD ([1]; RH 60 %, 5 days, room temperature, hydrochloride): Form II
- Crystal form by XRD ([1]; RH 60 %, 5 days, room temperature, listed as Dorzolamide HCl, hydrochloride): transforms to crystal form II
- LOD (%) ([1]; RH 80 %, 5 days, room temperature): 0.2%
- Crystal form by XRD ([1]; RH 80 %, 5 days, room temperature, hydrochloride): Form II
- Crystal form by XRD ([1]; RH 80 %, 5 days, room temperature, listed as Dorzolamide HCl, hydrochloride): transforms to crystal form II
- LOD (%) ([1]; RH 100 %, 5 days, room temperature): 0.2%
- Crystal form by XRD ([1]; RH 100 %, 5 days, room temperature, hydrochloride): Form II
- Crystal form by XRD ([1]; RH 100 %, 5 days, room temperature, listed as Dorzolamide HCl, hydrochloride): transforms to crystal form II
- Crystal form by XRD after heating [2]: changed the material to the crystalline, anhydrous form II
